# ChEMBL document CHEMBL1147101, “Development and persistence of antimicrobial resistance in Pseudomonas aeruginosa: a longitudinal observation in mechanically ventilated patients” (Antimicrob Agents Chemother, 2007)
# Calls of active or inactive are those of the source. The calls are words filed in the database; no cut-off is given here.
# What was measured:
# Assay type in all cases: functional, organism-based
# Details in all cases: Trachea
# Pseudomonas aeruginosa [1] = assay: Antimicrobial activity against Pseudomonas aeruginosa 65.38-4 tracheal isolates from mechanically ventilated tuberculosis patient
# Pseudomonas aeruginosa [2] = assay: Antimicrobial activity against Pseudomonas aeruginosa 1C9 tracheal isolates from mechanically ventilated tuberculosis patient
# Pseudomonas aeruginosa [3] = assay: Antimicrobial activity against Pseudomonas aeruginosa 13D11 tracheal isolates from mechanically ventilated chronic respiratory insufficiency patient
# Pseudomonas aeruginosa [4] = assay: Antimicrobial activity against Pseudomonas aeruginosa 13E1 tracheal isolates from mechanically ventilated chronic respiratory insufficiency patient
# Pseudomonas aeruginosa [5] = assay: Antimicrobial activity against Pseudomonas aeruginosa 2A1 tracheal isolates from mechanically ventilated tuberculosis patient
# Pseudomonas aeruginosa [6] = assay: Antimicrobial activity against Pseudomonas aeruginosa 2B5 tracheal isolates from mechanically ventilated tuberculosis patient
# Pseudomonas aeruginosa [7] = assay: Antimicrobial activity against Pseudomonas aeruginosa 15H5 tracheal isolates from mechanically ventilated chronic respiratory insufficiency patient
# Pseudomonas aeruginosa [8] = assay: Antimicrobial activity against Pseudomonas aeruginosa 16D5 tracheal isolates from mechanically ventilated chronic respiratory insufficiency patient
# Pseudomonas aeruginosa [9] = assay: Antimicrobial activity against Pseudomonas aeruginosa 19C5 tracheal isolates from mechanically ventilated chronic respiratory insufficiency patient
# Pseudomonas aeruginosa [10] = assay: Antimicrobial activity against Pseudomonas aeruginosa 19C7 tracheal isolates from mechanically ventilated chronic respiratory insufficiency patient
# Pseudomonas aeruginosa [11] = assay: Antimicrobial activity against Pseudomonas aeruginosa 19D9 tracheal isolates from mechanically ventilated chronic respiratory insufficiency patient
# Pseudomonas aeruginosa [12] = assay: Antimicrobial activity against Pseudomonas aeruginosa 3E2 tracheal isolates from mechanically ventilated chronic respiratory insufficiency patient
# Pseudomonas aeruginosa [13] = assay: Antimicrobial activity against Pseudomonas aeruginosa 9B5 tracheal isolates from mechanically ventilated chronic respiratory insufficiency patient
# Pseudomonas aeruginosa [14] = assay: Antimicrobial activity against Pseudomonas aeruginosa 29G7 tracheal isolates from mechanically ventilated chronic respiratory insufficiency patient
# Pseudomonas aeruginosa [15] = assay: Antimicrobial activity against Pseudomonas aeruginosa 29H1 tracheal isolates from mechanically ventilated chronic respiratory insufficiency patient
# Pseudomonas aeruginosa [16] = assay: Antimicrobial activity against Pseudomonas aeruginosa 19E9 tracheal isolates from mechanically ventilated chronic respiratory insufficiency patient
# Pseudomonas aeruginosa [17] = assay: Antimicrobial activity against Pseudomonas aeruginosa 24D1 tracheal isolates from mechanically ventilated chronic respiratory insufficiency patient
# Pseudomonas aeruginosa [18] = assay: Antimicrobial activity against Pseudomonas aeruginosa 24F4 tracheal isolates from mechanically ventilated chronic respiratory insufficiency patient
# Pseudomonas aeruginosa [19] = assay: Antimicrobial activity against Pseudomonas aeruginosa P21.21 tracheal isolates from mechanically ventilated tuberculosis patient
# Pseudomonas aeruginosa [20] = assay: Antimicrobial activity against Pseudomonas aeruginosa 65.18-1 tracheal isolates from mechanically ventilated tuberculosis patient
# Pseudomonas aeruginosa [21] = assay: Antimicrobial activity against Pseudomonas aeruginosa 65.18-2 tracheal isolates from mechanically ventilated tuberculosis patient
# Pseudomonas aeruginosa [22] = assay: Antimicrobial activity against Pseudomonas aeruginosa 65.18-3 tracheal isolates from mechanically ventilated tuberculosis patient
# Pseudomonas aeruginosa [23] = assay: Antimicrobial activity against Pseudomonas aeruginosa 65.18-4 tracheal isolates from mechanically ventilated tuberculosis patient
# Pseudomonas aeruginosa [24] = assay: Antimicrobial activity against Pseudomonas aeruginosa P21.23 tracheal isolates from mechanically ventilated tuberculosis patient
# Pseudomonas aeruginosa [25] = assay: Antimicrobial activity against Pseudomonas aeruginosa IA5 tracheal isolates from mechanically ventilated tuberculosis patient
# Pseudomonas aeruginosa [26] = assay: Antimicrobial activity against Pseudomonas aeruginosa IC7 tracheal isolates from mechanically ventilated tuberculosis patient
# Pseudomonas aeruginosa [27] = assay: Antimicrobial activity against Pseudomonas aeruginosa 65.33-1 tracheal isolates from mechanically ventilated tuberculosis patient
# Pseudomonas aeruginosa [28] = assay: Antimicrobial activity against Pseudomonas aeruginosa 65.33-3 tracheal isolates from mechanically ventilated tuberculosis patient
# Pseudomonas aeruginosa [29] = assay: Antimicrobial activity against Pseudomonas aeruginosa 65.36-1 tracheal isolates from mechanically ventilated tuberculosis patient
# Pseudomonas aeruginosa [30] = assay: Antimicrobial activity against Pseudomonas aeruginosa 65.36-3 tracheal isolates from mechanically ventilated tuberculosis patient
# Pseudomonas aeruginosa [31] = assay: Antimicrobial activity against Pseudomonas aeruginosa 65.36-4 tracheal isolates from mechanically ventilated tuberculosis patient
# Pseudomonas aeruginosa [32] = assay: Antimicrobial activity against Pseudomonas aeruginosa 65.38-2 tracheal isolates from mechanically ventilated tuberculosis patient
# Pseudomonas aeruginosa [33] = assay: Antimicrobial activity against Pseudomonas aeruginosa 24D5 tracheal isolates from mechanically ventilated chronic respiratory insufficiency patient
# Pseudomonas aeruginosa [34] = assay: Antimicrobial activity against Pseudomonas aeruginosa 15G10 tracheal isolates from mechanically ventilated chronic respiratory insufficiency patient
# Pseudomonas aeruginosa [35] = assay: Antimicrobial activity against Pseudomonas aeruginosa 13D3 tracheal isolates from mechanically ventilated chronic respiratory insufficiency patient
# Pseudomonas aeruginosa [36] = assay: Antimicrobial activity against Pseudomonas aeruginosa 13D6 tracheal isolates from mechanically ventilated chronic respiratory insufficiency patient
# Pseudomonas aeruginosa [37] = assay: Antimicrobial activity against Pseudomonas aeruginosa 16D2 tracheal isolates from mechanically ventilated chronic respiratory insufficiency patient
# Pseudomonas aeruginosa [38] = assay: Antimicrobial activity against Pseudomonas aeruginosa 19B1 tracheal isolates from mechanically ventilated chronic respiratory insufficiency patient
# Pseudomonas aeruginosa [39] = assay: Antimicrobial activity against Pseudomonas aeruginosa 19C12 tracheal isolates from mechanically ventilated chronic respiratory insufficiency patient
# Pseudomonas aeruginosa [40] = assay: Antimicrobial activity against Pseudomonas aeruginosa 19D10 tracheal isolates from mechanically ventilated chronic respiratory insufficiency patient
# Pseudomonas aeruginosa [41] = assay: Antimicrobial activity against Pseudomonas aeruginosa 19E1 tracheal isolates from mechanically ventilated chronic respiratory insufficiency patient
# Pseudomonas aeruginosa [42] = assay: Antimicrobial activity against Pseudomonas aeruginosa 19E12 tracheal isolates from mechanically ventilated chronic respiratory insufficiency patient
# Pseudomonas aeruginosa [43] = assay: Antimicrobial activity against Pseudomonas aeruginosa 19F1 tracheal isolates from mechanically ventilated chronic respiratory insufficiency patient
# Pseudomonas aeruginosa [44] = assay: Antimicrobial activity against Pseudomonas aeruginosa 19F2 tracheal isolates from mechanically ventilated chronic respiratory insufficiency patient
# Pseudomonas aeruginosa [45] = assay: Antimicrobial activity against Pseudomonas aeruginosa 24E1 tracheal isolates from mechanically ventilated chronic respiratory insufficiency patient
# Pseudomonas aeruginosa [46] = assay: Antimicrobial activity against Pseudomonas aeruginosa 24E2 tracheal isolates from mechanically ventilated chronic respiratory insufficiency patient
# Pseudomonas aeruginosa [47] = assay: Antimicrobial activity against Pseudomonas aeruginosa 24E6 tracheal isolates from mechanically ventilated chronic respiratory insufficiency patient
# Pseudomonas aeruginosa [48] = assay: Antimicrobial activity against Pseudomonas aeruginosa 23C5 tracheal isolates from mechanically ventilated chronic respiratory insufficiency patient
structure (smiles),measurement,setting,value
O=C(O)c1cn(C2CC2)c2cc(N3CCNCC3)c(F)cc2c1=O,Activity,Pseudomonas aeruginosa [1],Active
same,Activity,Pseudomonas aeruginosa [2],Active
same,Activity,Pseudomonas aeruginosa [3],Active
same,Activity,Pseudomonas aeruginosa [4],Active
same,Activity,Pseudomonas aeruginosa [5],Active
same,Activity,Pseudomonas aeruginosa [6],Active
same,Activity,Pseudomonas aeruginosa [7],Active
same,Activity,Pseudomonas aeruginosa [8],Active
same,Activity,Pseudomonas aeruginosa [9],Active
same,Activity,Pseudomonas aeruginosa [10],Active
same,Activity,Pseudomonas aeruginosa [11],inactive
same,Activity,Pseudomonas aeruginosa [12],Active
same,Activity,Pseudomonas aeruginosa [13],Active
same,Activity,Pseudomonas aeruginosa [14],Active
same,Activity,Pseudomonas aeruginosa [15],inactive
same,Activity,Pseudomonas aeruginosa [16],Active
same,Activity,Pseudomonas aeruginosa [17],Active
same,Activity,Pseudomonas aeruginosa [18],Active
same,Activity,Pseudomonas aeruginosa [19],Active
same,Activity,Pseudomonas aeruginosa [20],Active
same,Activity,Pseudomonas aeruginosa [21],Active
same,Activity,Pseudomonas aeruginosa [22],Active
same,Activity,Pseudomonas aeruginosa [23],Active
same,Activity,Pseudomonas aeruginosa [24],Active
same,Activity,Pseudomonas aeruginosa [25],Active
same,Activity,Pseudomonas aeruginosa [26],Active
same,Activity,Pseudomonas aeruginosa [27],Active
same,Activity,Pseudomonas aeruginosa [28],Active
same,Activity,Pseudomonas aeruginosa [29],Active
same,Activity,Pseudomonas aeruginosa [30],Active
same,Activity,Pseudomonas aeruginosa [31],Active
same,Activity,Pseudomonas aeruginosa [32],Active
CCn1cc(C(=O)O)c(=O)c2cc(F)c(N3CCNCC3)cc21,Activity,Pseudomonas aeruginosa [1],Active
same,Activity,Pseudomonas aeruginosa [2],Active
same,Activity,Pseudomonas aeruginosa [3],Active
same,Activity,Pseudomonas aeruginosa [4],Active
same,Activity,Pseudomonas aeruginosa [5],Active
same,Activity,Pseudomonas aeruginosa [6],Active
same,Activity,Pseudomonas aeruginosa [7],Active
same,Activity,Pseudomonas aeruginosa [8],Active
same,Activity,Pseudomonas aeruginosa [9],Active
same,Activity,Pseudomonas aeruginosa [10],Active
same,Activity,Pseudomonas aeruginosa [11],inactive
same,Activity,Pseudomonas aeruginosa [12],Active
same,Activity,Pseudomonas aeruginosa [13],Active
same,Activity,Pseudomonas aeruginosa [14],Active
same,Activity,Pseudomonas aeruginosa [15],inactive
same,Activity,Pseudomonas aeruginosa [16],Active
same,Activity,Pseudomonas aeruginosa [17],Active
same,Activity,Pseudomonas aeruginosa [33],inactive
same,Activity,Pseudomonas aeruginosa [18],Active
same,Activity,Pseudomonas aeruginosa [19],Active
same,Activity,Pseudomonas aeruginosa [20],Active
same,Activity,Pseudomonas aeruginosa [21],Active
same,Activity,Pseudomonas aeruginosa [22],Active
same,Activity,Pseudomonas aeruginosa [23],Active
same,Activity,Pseudomonas aeruginosa [24],Active
same,Activity,Pseudomonas aeruginosa [25],Active
same,Activity,Pseudomonas aeruginosa [26],Active
same,Activity,Pseudomonas aeruginosa [27],Active
same,Activity,Pseudomonas aeruginosa [28],Active
same,Activity,Pseudomonas aeruginosa [29],Active
same,Activity,Pseudomonas aeruginosa [30],Active
same,Activity,Pseudomonas aeruginosa [31],Active
same,Activity,Pseudomonas aeruginosa [32],Active
CO/N=C(\C(=O)N[C@@H]1C(=O)N2C(C(=O)[O-])=C(C[N+]3(C)CCCC3)CS[C@H]12)c1csc(N)n1,Activity,Pseudomonas aeruginosa [1],Active
same,Activity,Pseudomonas aeruginosa [2],Active
same,Activity,Pseudomonas aeruginosa [3],Active
same,Activity,Pseudomonas aeruginosa [4],Active
same,Activity,Pseudomonas aeruginosa [34],Active
same,Activity,Pseudomonas aeruginosa [5],Active
same,Activity,Pseudomonas aeruginosa [6],Active
same,Activity,Pseudomonas aeruginosa [35],Active
same,Activity,Pseudomonas aeruginosa [36],Active
same,Activity,Pseudomonas aeruginosa [7],Active
same,Activity,Pseudomonas aeruginosa [37],Active
same,Activity,Pseudomonas aeruginosa [8],Active
same,Activity,Pseudomonas aeruginosa [38],Active
same,Activity,Pseudomonas aeruginosa [9],Active
same,Activity,Pseudomonas aeruginosa [10],Active
same,Activity,Pseudomonas aeruginosa [39],Active
same,Activity,Pseudomonas aeruginosa [11],Active
same,Activity,Pseudomonas aeruginosa [40],Active
same,Activity,Pseudomonas aeruginosa [12],Active
same,Activity,Pseudomonas aeruginosa [13],Active
same,Activity,Pseudomonas aeruginosa [14],Active
same,Activity,Pseudomonas aeruginosa [15],inactive
same,Activity,Pseudomonas aeruginosa [41],Active
same,Activity,Pseudomonas aeruginosa [42],Active
same,Activity,Pseudomonas aeruginosa [16],Active
same,Antimicrobial activity,Pseudomonas aeruginosa [43],Active
same,Activity,Pseudomonas aeruginosa [44],Active
same,Activity,Pseudomonas aeruginosa [17],Active
same,Activity,Pseudomonas aeruginosa [45],Active
same,Activity,Pseudomonas aeruginosa [46],Active
same,Activity,Pseudomonas aeruginosa [47],Active
same,Activity,Pseudomonas aeruginosa [48],Active
same,Activity,Pseudomonas aeruginosa [19],Active
same,Activity,Pseudomonas aeruginosa [20],Active
same,Activity,Pseudomonas aeruginosa [21],Active
same,Activity,Pseudomonas aeruginosa [22],Active
same,Activity,Pseudomonas aeruginosa [23],Active
same,Activity,Pseudomonas aeruginosa [24],Active
same,Activity,Pseudomonas aeruginosa [25],Active
same,Activity,Pseudomonas aeruginosa [26],Active
same,Activity,Pseudomonas aeruginosa [27],Active
same,Activity,Pseudomonas aeruginosa [29],Active
same,Activity,Pseudomonas aeruginosa [31],inactive
